Experimental data: patent US9511120B2, “Use of the angiotensin-(1-9) peptide or derivatives thereof, use of vectors overexpressing the ACE2 enzyme that produces angiotensin-(1-9) for preparing medicaments useful for preventing, reverting, inhibiting and/or reducing hypertension and/or inducing vasodilation” (PONTIFICA UNIVERSIDAD CATÓLICA DE CHILE, priority 2012, dated 2016)
Marks after values point to notes of the source that are not given here. Where no end group is shown, it is not given here.

Experiments:
Type in all cases: in vivo, rat
[1] = test system: TGF-β mRNA; test: Angiotensin II infusion model: TGF-β mRNA levels in the aortic wall; conditions: angiotensin II-infused rats
Description: (§1) Rats were subjected to the model of angiotensin II infusion (Grobe et al.: Am. J. Physiol. 292: H736-42, 2007). The animals were separated randomly into the following experimental groups: controls (Sham or pseudo-operated), infused with angiotensin II (300 ng/kg min), infused with angiotensin II and angiotensin-(1-9) (300 ng/kg min and 602 ng/kg min, respectively), and then infused with angiotensin II, angiotensin-(1-9) and the angiotensin-(1-7) receptor antagonist, A779 (300 ng/kg min, 602 ng/kg min, and 100 ng/kg min, respectively). In all cases the pumps operated at a flow of 0.5 μL/h and were implanted in the right jugular vein through a catheter fitted in an intrascapular subcutaneous pocket under anesthesia with ketamine HCl/xylazine (35 and 7 mg/kg i.p., respectively), for a period of 14 days.
(§2) The procedure described by Ocaranza et al. (Hypertension 48:572-8, 2006) was followed. Briefly, total RNA was isolated from the aorta using the trizol method and quantified by spectroscopy at 260 nm/280 nm. The cDNA was obtained by reverse transcription from 1.5 μg of total RNA treated with DNAse. […] The band intensity was quantified by densitometry and normalized to the 18S ribosomal RNA band.

[2] = test system: collagen I; test: Angiotensin II infusion model: collagen I protein levels in the aortic wall by Western blot; conditions: angiotensin II-hypertensive rats
Description: as §1
(§3) For the determination of collagen I and TGFβ-1, 30 μg and 50 μg of total proteins were used, respectively, diluted in SDS reducing buffer (50 mM tris-HCl, pH 7.4, NP-40 10%, NaCl 1M, Na deoxycholate 5%, EDTA 10 mg/mL, SDS 10%, aprotinin 1 mg/mL, leupeptin 0.1 mg/mL, PMSF 10 mM), they were then separated by SDS-PAGE gel electrophoresis 7%, and transferred to nitrocellulose membranes of […] to 300 mA for 1 h. The transfer of proteins was monitored by Ponceau red staining. […]

[3] = test system: ED-1; test: Goldblatt model: ventricular content of ED-1; conditions: GB rats, ventricle
Source text: (§4) Lewis normotensive rats (weight 150±10 g), which were separated randomly into the experimental hypertension model group or GB (Ocaranza et al. J. Hypertens. 20:413-20, 2002) or control group (S) were used. The latter corresponded to pseudo-operated animals. All animals were maintained under controlled conditions of light and darkness and had free access to food and water. Four weeks after surgery and at a blood pressure above 140 mmHg, GB rats were randomized for the chronic administration of angiotensin-(1-9) through an osmotic pump (602 ng kg^−1min^−1) via the jugular vein during two weeks. The animals were euthanized after 6 weeks post-surgery.
(§5) Immunostaining was performed using the streptavidin-biotin-peroxidase method with the inflammation marker ED-1. This is a glycoprotein expressed primarily in the lysosomal membrane of active macrophages (Leskovar et al. J. Exp. Biol. 203:1783-1795, 2000).
(§6) In order to block endogenous peroxidase, the samples were deparaffinized, rehydrated and treated with 10% H2O2 in methanol for 1 h. Then, the tissues were incubated with monoclonal antibody anti ED-1 (clone MCA341R, Serotec) diluted 1/1000 in 1% BSA prepared in PBS-0.05% Tween 20 overnight at 4° C. in a humid chamber. The sections were washed three times with 1×PBS-0.05% Tween 20, pH 7.4 for 5 min and incubated with the biotinylated secondary antibody for 30 min at room temperature. […]

[4] = test system: thoracic aortas of hypertensive rats by pressure overload; test: Goldblatt model: aortic hypertrophy by morphometry; conditions: GB rats, thoracic aorta
Source text: as §4
(§7) Aortic hypertrophy was determined by morphometry. Sections of the descending aorta of 5 μm thick, which were previously fixed in Bouin (1.3% picric acid, 9.5% formaldehyde and 4.8% acetic acid) for 24 hours, embedded in paraffin and stained with hematoxylin-eosin, were used, to be examined later in a light microscope as described by Igase et al. (Am. J. Physiol. 289:H1013-9, 2005). Briefly, images of the aortas were captured by a video camera (Nikon) fixed to a microscope (Nikon), and projected on a monitor; using the software Nis-Element. Lumen areas (LA) and total areas (TA) were calculated and recorded. The tunica media area (TMA) was obtained from the difference between the TA and LA of the aorta. The tunica media thickness (TMT) was defined as the region delimited by the external elastic lamina (EEL) and internal elastic lamina (IEL).

[5] = test system: ED-1; test: Goldblatt model: ED-1 levels of the aortic wall (immunohistochemistry); conditions: GB rats
Source text: as §4, §5, §6

[6] = test system: TGFβ-1; test: Goldblatt model: TGFβ-1 protein levels in the aortic wall; conditions: GB rats
Source text: as §4, §3

[7] = test system: MCP-1 mRNA; test: Angiotensin II infusion model: MCP-1 mRNA levels in the aortic wall
Description: as §1, §2

[8] = test system: thoracic aortas of hypertensive rats by angiotensin II infusion; test: Angiotensin II infusion model: aortic hypertrophy by morphometry; conditions: thoracic aorta, 14 days infusion
Description: as §1, §7

Sequence: DRVYIHPFH
- reduction of TGF-β mRNA levels [1]: 62.5%
- prevention of the increase of collagen in the aortic wall [2]: 60%
- # Positive cells (ED-1) [3]: 0-20
- Assigned value (ventricular content of ED-1) [3]: 1^# (Low number of ED1 and isolated)
- increase in TMA [4]: reduced significantly
- increase in TMA/AL [4]: reduced significantly
- increase in TMT [4]: reduced significantly
- decrease of ED-1 levels [5]: 82%
- decrease of TGFβ-1 levels [6]: 47%
- MCP-1 mRNA levels [7]: no differences
- ratio of tunica media area (TMA) to LA [8]: significantly prevented the increase
- thickness of the tunica media (TMT) [8]: significantly prevented the increase
